Measured values as given in patent US9540380B2, “Imidazotriazinone compounds” (Ironwood Pharmaceuticals, Inc., priority 2010, dated 2017).

How the values were obtained:
PDE1B = target: T1, PDE1B (Homo sapiens, UniProt Q01064); test: Phosphodiesterase Enzyme Screening Assay, PDE1B (selectivity versus PDE9A2); format: biochemical; settings: ratio of IC50 values; value greater than 1 indicates greater selectivity for PDE9A2
T1 construct: purchased Reaction Biology Corporation, Malvern, Pa
Excerpt: (§1) Compounds of the invention were screened against PDE1A, PDE1B, PDE2A, PDE3A, PDE3B, PDE4A1A, PDE4B1, PDE4D3, PDE5A1, PDE6C, PDE7A, PDE8A1, PDE9A2, PDE10A2 AND PDE11A isoforms of the phosphodiesterase enzyme to determine activity and overall selectivity through comparative analysis. The assay generally consists of testing the compounds of the invention at 10 concentrations. Where 8-methoxy-IBMX and Zaprinast were used as reference inhibitors.
(§2) The phosphodiesterase enzyme isoforms were obtained from a commercial retailer (Reaction Biology Corporation, Malvern, Pa.) for use in the instant screening assay.
(§3) The analysis was completed using the Caliper LabChip 3000 and a 12-sipper LabChip. LabChip assays are separations-based, meaning that the product and substrate are electrophoretically separated, thereby minimizing interferences and yielding the highest data quality available on any screening platform. Z′ factors for both the EZ Reader and LC3000 enzymatic assays are routinely in the 0.8 to 0.9 range. High Z′ values, few false positives, few false negatives and analytical quality reproducibility are the reasons cited for the increasing reliance on the LabChip assays.
(§4) The off-chip incubation mobility-shift phosphodiesterase assay uses a microfluidic chip to measure the conversion of a fluorescent cyclic AMP substrate to a 5′-AMP product, or a cyclic GMP substrate to a 5′-GMP product. The reaction mixture, from a microtiter plate well, is introduced through a capillary sipper onto the chip, where the fluorescent substrate and product are separated by electrophoresis and detected via laser-induced fluorescence. […] The precision of microfluidics allows researchers to detect subtle interactions between drug candidates and therapeutic targets. The technology is able to detect both strong and weak inhibitors with high accuracy, and routinely identifies drug candidates that conventional techniques miss.
(§5) Reactions were carried out in 100 mM HEPES (pH 7.5), 5 mM MgCl2, 1 mM DTT, 0.003% Brij, 4.0 μM cGMP substrate. The reaction was started by addition of cGMP or cAMP and incubated for 1 hour at R.T. The reaction was terminated by the addition of stop buffer containing 100 mM HEPES (pH 7.5), 15 mM EDTA, 0.015% Brij-35, 5% DMSO. Cyclic AMP/GMP substrate and 5′-AMP/5′-GMP product were separated by charge using electrophoretic mobility shift. Product formed was compared to control wells to determine inhibition or enhancement of enzyme activity.
(§6) One or more reference compounds, depending on phosphodiesterase isoform, selected from 8-methoxy-IBMX, Zaprinast, Trequinsin, Pentoxifyline, Rolipram, and Vinpocetine, Dipyridamole, and BRL-50481 were run alongside client samples to ensure data quality. The resulting IC50 is compared against the historical average and must be within 3-fold of this average.
(§7) Data points were averages of quadruplicate wells and error bars represented the SEM for each point. IC50s were determined using GraphPad Prism Version 5.01 and the log (inhibitor) vs. response variable slope curve fit.

PDE1A = target: T2, PDE1A (Homo sapiens, UniProt P54750); test: Phosphodiesterase Enzyme Screening Assay, PDE1A (selectivity versus PDE9A2); format: biochemical; settings: ratio of IC50 values; value greater than 1 indicates greater selectivity for PDE9A2
T2 construct: purchased Reaction Biology Corporation, Malvern, Pa
Excerpt: as §1, §2, §3, §4, §5, §6, §7

PDE9 = PDE9 (Homo sapiens, UniProt O76083); settings: PDE9 affinity for cGMP; cited from earlier work
PDE9A2 = target: T3, PDE9A2 (Homo sapiens, UniProt O76083); test: Phosphodiesterase Enzyme Screening Assay, PDE9A2 (Caliper LabChip mobility-shift); format: biochemical; settings: 10 concentrations, 4.0 μM cGMP substrate, 1 hour at R.T.; read-out: Band (PDE9A2 IC50)
T3 construct: purchased Reaction Biology Corporation, Malvern, Pa
Excerpt: as §1, §2, §3, §4, §5, §6, §7

T2 sequence (P54750 whole entry): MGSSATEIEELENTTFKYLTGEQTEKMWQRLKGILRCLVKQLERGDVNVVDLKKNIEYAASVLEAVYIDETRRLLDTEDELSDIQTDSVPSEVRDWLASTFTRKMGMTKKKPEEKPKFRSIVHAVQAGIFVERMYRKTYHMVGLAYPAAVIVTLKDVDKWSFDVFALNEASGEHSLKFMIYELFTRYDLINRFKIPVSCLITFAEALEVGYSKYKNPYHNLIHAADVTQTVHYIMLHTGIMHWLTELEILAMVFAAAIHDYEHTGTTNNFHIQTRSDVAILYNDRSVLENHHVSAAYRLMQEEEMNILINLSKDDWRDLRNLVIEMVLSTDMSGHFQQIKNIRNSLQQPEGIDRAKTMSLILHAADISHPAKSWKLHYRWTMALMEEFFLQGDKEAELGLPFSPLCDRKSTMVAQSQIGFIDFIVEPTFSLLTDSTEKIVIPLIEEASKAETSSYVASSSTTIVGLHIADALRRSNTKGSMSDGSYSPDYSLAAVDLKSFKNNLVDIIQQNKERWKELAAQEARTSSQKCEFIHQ
T3 sequence (O76083 1-533 isoform O76083-2): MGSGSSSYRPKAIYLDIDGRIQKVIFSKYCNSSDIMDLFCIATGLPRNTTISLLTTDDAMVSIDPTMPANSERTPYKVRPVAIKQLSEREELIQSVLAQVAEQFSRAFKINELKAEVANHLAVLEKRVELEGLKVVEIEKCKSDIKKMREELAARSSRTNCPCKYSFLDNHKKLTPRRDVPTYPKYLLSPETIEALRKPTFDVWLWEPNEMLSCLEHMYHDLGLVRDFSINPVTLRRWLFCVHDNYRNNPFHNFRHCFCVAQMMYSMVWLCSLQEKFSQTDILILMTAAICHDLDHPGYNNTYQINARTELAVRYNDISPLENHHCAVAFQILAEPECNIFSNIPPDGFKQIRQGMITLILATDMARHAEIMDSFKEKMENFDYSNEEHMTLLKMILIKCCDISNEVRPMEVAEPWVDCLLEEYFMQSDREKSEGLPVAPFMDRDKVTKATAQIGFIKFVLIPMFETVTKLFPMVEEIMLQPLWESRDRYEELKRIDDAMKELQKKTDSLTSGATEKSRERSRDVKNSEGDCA
T1 sequence (Q01064 whole entry): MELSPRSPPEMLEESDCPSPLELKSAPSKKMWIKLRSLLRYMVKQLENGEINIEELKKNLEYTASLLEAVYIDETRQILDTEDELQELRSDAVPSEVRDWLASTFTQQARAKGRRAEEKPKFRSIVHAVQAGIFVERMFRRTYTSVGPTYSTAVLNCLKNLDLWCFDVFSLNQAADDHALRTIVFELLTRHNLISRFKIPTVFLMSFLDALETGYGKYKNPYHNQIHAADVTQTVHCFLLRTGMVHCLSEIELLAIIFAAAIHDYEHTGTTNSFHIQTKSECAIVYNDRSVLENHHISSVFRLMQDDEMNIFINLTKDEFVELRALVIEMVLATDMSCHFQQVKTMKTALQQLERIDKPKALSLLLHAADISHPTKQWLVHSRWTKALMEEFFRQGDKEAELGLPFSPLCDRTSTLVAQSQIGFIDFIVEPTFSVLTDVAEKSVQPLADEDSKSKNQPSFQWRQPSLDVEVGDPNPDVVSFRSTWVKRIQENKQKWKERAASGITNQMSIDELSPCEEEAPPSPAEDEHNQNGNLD
Chain of PDE9 (O76083 whole entry): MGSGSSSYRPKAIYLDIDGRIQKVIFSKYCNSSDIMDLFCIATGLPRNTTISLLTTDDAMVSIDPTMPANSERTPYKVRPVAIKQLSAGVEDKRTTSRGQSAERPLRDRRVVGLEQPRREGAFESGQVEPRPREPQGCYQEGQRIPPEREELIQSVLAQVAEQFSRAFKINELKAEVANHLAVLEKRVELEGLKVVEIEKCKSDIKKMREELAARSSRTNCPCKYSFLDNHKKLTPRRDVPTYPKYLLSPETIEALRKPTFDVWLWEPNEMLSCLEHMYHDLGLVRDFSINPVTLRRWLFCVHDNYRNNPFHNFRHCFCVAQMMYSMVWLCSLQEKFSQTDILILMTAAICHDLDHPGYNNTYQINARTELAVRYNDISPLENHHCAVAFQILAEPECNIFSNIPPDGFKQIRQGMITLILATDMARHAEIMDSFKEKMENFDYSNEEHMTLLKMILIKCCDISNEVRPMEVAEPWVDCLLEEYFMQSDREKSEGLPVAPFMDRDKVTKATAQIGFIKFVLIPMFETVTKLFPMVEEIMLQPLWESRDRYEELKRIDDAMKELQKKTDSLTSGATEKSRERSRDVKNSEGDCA

C[C@@H]1CN(Cc2ccc3ccccc3n2)C[C@H]1c1nn2c(C3CCOCC3)ncc2c(=O)[nH]1 (single isomer, unassigned) [(+)-2-((3,4-trans)-4-methyl-1-(quinolin-2-ylmethyl)pyrrolidi] [(+)-2-((3,4-trans)-4-methyl-1-(quinolin-2-ylmethyl)pyrrolidin-3-yl)-7-(tetrahydro-2H-pyran-4-yl)imidazo[5,1-f][1,2,4]triazin-4(3H)-one]
PDE1B selectivity (versus PDE9A2) (PDE1B): 1400 | PDE1A selectivity (versus PDE9A2) (PDE1A): 621

Nc1nc2c(ncn2[C@@H]2O[C@@H]3COP(=O)(O)O[C@H]3[C@H]2O)c(=O)[nH]1 [cGMP, cyclic guanosine monophosphate]
Km (PDE9): ~0.17 µM

CC1CN(Cc2ccccc2)CC1c1nn2c(C3CCCOC3)ncc2c(=O)[nH]1 (single isomer, unassigned) [2-((3,4-trans)-1-benzyl-4-methylpyrrolidin-3-yl)-7-(tetrahyd] [2-((3,4-trans)-1-benzyl-4-methylpyrrolidin-3-yl)-7-(tetrahydro-2H-pyran-3-yl)imidazo[5,1-f][1,2,4]triazin-4(3H)-one]
PDE1B selectivity (versus PDE9A2) (PDE1B): 38 | PDE1A selectivity (versus PDE9A2) (PDE1A): 28

C[C@@H]1CN(Cc2ccccc2C#N)C[C@H]1c1nn2c(C3CCOCC3)ncc2c(=O)[nH]1 (single isomer, unassigned) [(+)-2-(((3,4-trans)-3-methyl-4-(4-oxo-7-(tetrahydro-2H-pyran-4-yl)-3,4-dihydroimidazo[5,1-f][1,2,4]triazin-2-yl)pyrrolidin-1-yl)methyl)benzonitrile]
IC50 (PDE9A2): < 1000 nM | PDE1B selectivity (versus PDE9A2) (PDE1B): 220 | PDE1A selectivity (versus PDE9A2) (PDE1A): 241

C[C@@H]1CN(Cc2cccc(C#N)c2)C[C@H]1c1nn2c(C3CCOCC3)ncc2c(=O)[nH]1 (single isomer, unassigned) [(+)-3-(((3,4-trans)-3-methyl-4-(4-oxo-7-(tetrahydro-2H-pyran-4-yl)-3,4-dihydroimidazo[5,1-f][1,2,4]triazin-2-yl)pyrrolidin-1-yl)methyl)benzonitrile]
IC50 (PDE9A2): < 1000 nM | PDE1B selectivity (versus PDE9A2) (PDE1B): 343 | PDE1A selectivity (versus PDE9A2) (PDE1A): 942

C[C@@H]1CN(Cc2ccc(C#N)cc2)C[C@H]1c1nn2c(C3CCOCC3)ncc2c(=O)[nH]1 (single isomer, unassigned) [(−)-4-(((3,4-trans)-3-methyl-4-(4-oxo-7-(tetrahydro-2H-pyran-4-yl)-3,4-dihydroimidazo[5,1-f][1,2,4]triazin-2-yl)pyrrolidin-1-yl)methyl)benzonitrile]
IC50 (PDE9A2): < 1000 nM | PDE1B selectivity (versus PDE9A2) (PDE1B): 1445 | PDE1A selectivity (versus PDE9A2) (PDE1A): 640

C[C@@H]1CN(Cc2cn3ncccc3n2)C[C@H]1c1nn2c(C3CCOCC3)ncc2c(=O)[nH]1 (single isomer, unassigned) [(+)-2-((3,4-trans)-1-(imidazo[1,2-b]pyridazin-2-ylmethyl)-4-] [(+)-2-((3,4-trans)-1-(imidazo[1,2-b]pyridazin-2-ylmethyl)-4-methylpyrrolidin-3-yl)-7-(tetrahydro-2H-pyran-4-yl)imidazo[5,1-f][1,2,4]triazin-4(3H)-one]
PDE1B selectivity (versus PDE9A2) (PDE1B): 1413 | PDE1A selectivity (versus PDE9A2) (PDE1A): 1005

CCS(=O)(=O)N1CCC(c2ncc3c(=O)[nH]c([C@@H]4CN(Cc5ncccn5)C[C@H]4C)nn23)CC1 (single isomer, unassigned) [(−)-7-(1-(ethylsulfonyl)piperidin-4-yl)-2-((3,4-trans)-4-methyl-1-(pyrimidin-2-ylmethyl)pyrrolidin-3-yl)imidazo[5,1-f][1,2,4]triazin-4(3H)-one]
IC50 (PDE9A2): > 10000 nM
